# Article PMC6891756, “Synthesis and Biological Evaluation of Novel Aminochalcones as Potential Anticancer and Antimicrobial Agents” (Molecules, 2019)
# How the values were obtained:
# [1] = test system: Fusarium linii KB-F1; test: Microbial growth curve screening, F. linii; type: cell-based; conditions: 0.1% (w/v); for ∆OD F. linii: OD at 560 nm, control 1.95; for Lag-phase F. linii: control 13.5 h
# Experimental: (§1) The antimicrobial screening tests were performed on two strains of bacteria: E. coli ATCC10536 and S. aureus DSM799, strain of yeast C. albicans DSM1386 and three strains of fungi: F. linii KB-F1, A. alternata CBS1526 and A. niger DSM1957. All microorganisms were obtained from the collection of the Faculty of Biotechnology and Food Microbiology, Wrocław University of Environmental and Life Sciences. The bacteria were cultured in nutrient broth (Biocorp, Warsaw, Poland), yeast and fungi in YM medium (3 g yeast extract, 3 g malt extract, 5 g bacteriological peptone and 10 g of glucose dissolved in 1 L of distilled water). The tests were carried out in 100-well microtiter plates. To each well 280 μL of culture medium, 10 μL of microorganism suspension and 10 μL of aminochalcone (1–18) dissolved in dimethyl sulfoxide (3% (w/v)) were added. The final concentration of the tested compound (1–18) was 0.1% (w/v). Each experiment were performed in 3 replications. The optical density of the cell suspension was measured on Bioscreen C (Automated Growth Curve Analysis System Lab System, Vantaa, Finland) at 560 nm automatically, at regular intervals of 30 min for 2–3 days. Cell cultures were maintained at 28 °C on a continuous shaker. To prepare the growth curves for each strain, the mean values of the absorbance in a function of time were used. The resulting antimicrobial activity was expressed as the increase of optical density (ΔOD) and was compared to that of the control cultures in the medium supplemented with dimethyl sulfoxide and also with reference substances: oxytetracycline (against bacteria), cycloheximide (against yeast) and nystatin (against fungi) (Sigma Aldrich).
# [2] = test system: LS180; test: SRB antiproliferative assay, LS180; type: cell-based, human; conditions: 1–100 µg·mL^−1, ND = not detected in the tested concentration range; for IC50: Homo sapiens, LS180, 48 h
# Experimental: (§2) Anticancer activity was evaluated using the sulforhodamine B assay (SRB) on four different human colon cancer cell lines: HT-29, LS180, LoVo and LoVo/DX and green monkey kidney fibroblasts COS7 (ATCC, Manassas, VA, USA). Cell lines HT-29 and COS7 were cultured in α-MEM medium (IIET PAS, Wrocław, Poland), LS180 in OptiMEM medium (IIET PAS), LoVo and LoVo/DX in mixture of α-MEM and OptiMEM medium (1:1 (v:v)). Each culture medium was supplemented with 10% fetal bovine serum, 2 mM glutamine, 100 μg·mL^−1 penicillin, 100 μg·mL^−1 streptomycin and 0.25 μg·mL^−1 amphotericin (all supplements purchased from Gibco (Paisley, UK). Cells were incubated at 37 °C, 5% CO2 in HeraCELL 150i incubator (Thermo Fisher Scientific, Waltham, MA, USA).
# (§3) For the SRB assay, cells were seeded onto 96-well plates (Sarstedt, Nümbrecht, Germany) at a density of 5·10^3/well and cultured overnight as described above. Then, the growth medium was gently removed and replaced with fresh medium, supplemented with aminochalcone derivatives in the concentration ranging from 1 µg·mL^−1 to 100 µg·mL^−1. All stock solutions were prepared in DMSO at a concentration of 10 mg·mL^−1. Cells were incubated for 48 h and then the SRB assay was performed as described previously. Each experiment was performed in quadruplicate. The final results were reported as the IC50 values calculated for three independent experiments. Cisplatin (Acros Organics, Waltham, MA, USA) and doxorubicin (Fisher BioReagents, Waltham, MA, USA) were used as positive controls of the test.
# [3] = test system: Alternaria alternata CBS1526; test: MIC evaluation (broth method), A. alternata; type: cell-based; conditions: Alternaria alternata, CBS1526, 48–72 h, read-out: Minimal inhibitory concentration A. alternata
# Experimental: (§4) Sterile 96-well microtiter plates (Sarstedt) with nutrient broth (for bacteria) (Biocorp) or YM medium (for yeast and filamentous fungi) were inoculated with a standardized cell suspension of bacteria and yeast or fungal spores of 10^5 cell·mL^−1, and supplemented with aminochalcones dissolved in DMSO. […] All analysis were conducted in triplicates. The plates were incubated at 30 °C (bacteria and yeast) or 25 °C (filamentous fungi) for 48–72 h. The results were measured with the Spark® Multimode Microplate Reader (Tecan, Männedorf, Switzerland) at a 560 nm wavelength. The minimal inhibitory concentration was defined as the lowest concentration of a tested compound that completely restricted the growth of the microorganism. In order to verify the obtained results, microbial cultures subjected to each concentration of aminochalcone were inoculated onto nutrient agar or YM plates and incubated as described above. The lack of growth on agar plate was a confirmation of the MIC of the tested compound. The resulting MIC values were compared with the reference substances: oxytetracycline (against bacteria), cycloheximide (against yeast) and nystatin (against fungi) (Sigma Aldrich).
# [4] = test system: HT-29 cell line; set-up: method as in PMID 24675137; conditions: cited from earlier work
# [5] = SRB assay, normal fibroblasts COS7; type: cell-based, green monkey; conditions: green monkey, COS7 kidney fibroblasts (normal cell line), ND = not detected in the tested concentration range
# Experimental: as §2, §3
# [6] = test system: Aspergillus niger DSM1957; test: MIC evaluation (broth method), A. niger; type: cell-based; conditions: Aspergillus niger, DSM1957, 48–72 h, read-out: Minimal inhibitory concentration A. niger
# Experimental: as §4
# [7] = test system: LoVo/DX; test: SRB antiproliferative assay, LoVo/DX; type: cell-based, human; conditions: 48 h, 1–100 µg·mL^−1, ND = not detected in the tested concentration range; for IC50: Homo sapiens, LoVo/DX
# Experimental: as §2, §3
# [8] = test system: Alternaria alternata CBS1526; test: Microbial growth curve screening, A. alternata; type: cell-based; conditions: 0.1% (w/v); for ∆OD A. alternata: OD at 560 nm, control 1.86
# Experimental: as §1
# [9] = test system: HT-29; test: SRB antiproliferative assay, HT-29; type: cell-based, human; conditions: for IC50: Homo sapiens, HT-29
# Experimental: as §2, §3
# [10] = test system: Candida albicans DSM1386; test: Microbial growth curve screening, C. albicans; type: cell-based; conditions: 0.1% (w/v)
# Experimental: as §1
# [11] = test system: LoVo; test: SRB antiproliferative assay, LoVo; type: cell-based, human; conditions: 48 h, 1–100 µg·mL^−1, ND = not detected in the tested concentration range; for IC50: Homo sapiens, LoVo
# Experimental: as §2, §3
# [12] = test system: Staphylococcus aureus DSM799; test: Microbial growth curve screening, S. aureus; type: cell-based; conditions: 0.1% (w/v); for ∆OD S. aureus: OD at 560 nm, control 1.67
# Experimental: as §1
# [13] = test system: Escherichia coli ATCC10536; test: Microbial growth curve screening, E. coli; type: cell-based; conditions: 0.1% (w/v); for ∆OD E. coli: OD at 560 nm, control 1.61
# Experimental: as §1
# [14] = test system: Staphylococcus aureus DSM799; test: MIC evaluation (broth method), S. aureus; type: cell-based; conditions: 48–72 h, read-out: Minimal inhibitory concentration S. aureus
# Experimental: as §4
# [15] = test system: Aspergillus niger DSM1957; test: Microbial growth curve screening, A. niger; type: cell-based; conditions: 0.1% (w/v); for ∆OD A. niger: OD at 560 nm, control 2.14; for Lag-phase A. niger: control 11.0 h
# Experimental: as §1
# [16] = test system: HT-29, LS180, LoVo and LoVo/DX; test: SRB assay, all tested human colon cancer cell lines (pooled statement); type: cell-based; conditions: range over HT-29, LS180, LoVo, read-out: IC50 values against all tested human colon cancer cell lines
# Experimental: as §2
# as §3, with “Cisplatin (Acros Organics, Waltham, MA, USA) and doxorubicin (Fisher BioReagents, Waltham, MA, USA) were used as positive controls of the test.” left out
# [17] = test system: Candida albicans DSM1386; test: MIC evaluation (broth method), C. albicans; type: cell-based; conditions: DSM1386, broth method, 48–72 h, read-out: Minimal inhibitory concentration C. albicans
# Experimental: as §4
# [18] = test system: Escherichia coli ATCC10536; test: MIC evaluation (broth method), E. coli; type: cell-based; conditions: 48–72 h, read-out: Minimal inhibitory concentration E. coli
# Experimental: as §4
# [19] = test system: Fusarium linii KB-F1; test: MIC evaluation (broth method), F. linii; type: cell-based; conditions: Fusarium, KBF1, 48–72 h, read-out: Minimal inhibitory concentration F. linii
# Experimental: as §4
# [20] = test system: human breast cancer cell line T47D; set-up: method as in earlier work; conditions: cited from earlier work
# [21] = test system: all tested microorganisms; test: Growth curve screening, all tested microorganisms (pooled statement); type: cell-based; conditions: 0.1% (w/v)
# Experimental: as §1, with “To each well 280 μL of culture medium, 10 μL of microorganism suspension and 10 μL of aminochalcone (1–18) dissolved in dimethyl sulfoxide (3% (w/v)) were added. The final concentration of the tested compound (1–18) was 0.1% (w/v). Each experiment were performed in 3 replications.” left out, “Cell cultures were maintained at 28 °C on a continuous shaker.” left out
# [22] = test system: all tested microorganisms; test: MIC evaluation, all tested strains (pooled statement); type: cell-based; conditions: read-out: MIC values against all tested microorganisms
# Experimental: as §4
# [23] = test system: Trichophyton rubrum; set-up: method as in doi:10.1007/s10600-018-2281-7; conditions: cited from earlier work
# [24] = test system: green monkey kidney fibroblasts COS7; test: SRB assay, normal fibroblasts COS7; type: cell-based; conditions: 48 h, normal cell line, ND = not detected in the tested concentration range
# Experimental: as §2, §3
# [25] = SRB, 48 h, 1–100 µg·mL^−1, ND = not detected in the tested concentration range
Structure (SMILES),∆OD F. linii [1],Lag-phase F. linii [1] [h],IC50 [2] [µg/mL],MIC [3] [µg/mL],IC50 at 48 h [5] [µg/mL],MIC [6] [µg/mL],IC50 [7] [µg/mL],∆OD A. alternata [8],"IC50 [9, 25] [µg/mL]",IC50 [11] [µg/mL],∆OD S. aureus [12],∆OD E. coli [13],MIC [14] [µg/mL],∆OD A. niger [15],Lag-phase A. niger [15] [h],melting point [°C],MIC [17] [µg/mL],MIC [18] [µg/mL],MIC [19] [µg/mL],further results
"Nc1ccccc1C(=O)/C=C/c1ccccc1 [Compound 1, 2′-Aminochalcone]",0.73,18.5,2.06 ± 0.18,1,2.64 ± 0.47,0.125,1.43 ± 0.02,0.0,1.43 ± 0.16,1.56 ± 0.04,0.0,0.12,0.25,–,–,–,–,–,–,"IC50 HT-29 (literature) [4]: 0.98 µg/mL; IC50 ([4]; read-out: IC50 HT-29 (literature)): 4.39 µM; times higher activity than cisplatin, HT-29 ([9]; ratio of IC50 values vs cisplatin (19)): ~12 times; ∆OD C. albicans ([10]; OD at 560 nm, control 1.58): 0.14; Lag-phase C. albicans ([10]; control 3.0 h): 24.5 h; Lag-phase E. coli ([13]; control 4.0 h): 10.0 h"
"Nc1cccc(C(=O)/C=C/c2ccccc2)c1 [Compound 2, 3′-Aminochalcone]",0.23,30.0,2.13 ± 0.18,0.5,3.25 ± 0.66,–,1.97 ± 0.3,0.0,1.6 ± 0.01,1.88 ± 0.12,0.0,0.0,0.25,0.34,1.5,121 to 124,0.5,0.25,–,IC50 [16]: 1.6 to 2.13 µg/mL
"Nc1ccc(C(=O)/C=C/c2ccccc2)cc1 [Compound 3, 4′-Aminochalcone]",0,–,4.68 ± 0.09,0.5,3.85 ± 0.28,0.5,2.26 ± 0.05,0.0,1.98 ± 0.18,2.84 ± 0.09,0.0,0.0,0.25,–,–,–,0.5,0.5,0.25,IC50 T47D (literature) [20]: 5.28 µg/mL; growth inhibition of all tested microorganisms [21]: complete inhibition of the growth; MIC [22]: 0.25 to 0.5 µg/mL
"Nc1ccccc1C(=O)/C=C/c1ccc([N+](=O)[O-])cc1 [Compound 10, 2′-Amino-4-nitrochalcone]",0.0,–,2 ± 0.35,–,1.79 ± 0.14,–,0.96 ± 0.12,0.20,3.24 ± 0.27,1.11 ± 0.07,0.15,0.0,–,0.79,23.0,114 to 117,0.5,0.25,0.5,MIC80 Trichophyton rubrum (literature) [23]: 0.5 µg/mL; Lag-phase A. alternata ([8]; control 16.5 h): 0.5 h; Lag-phase S. aureus ([12]; control 2.5 h): 11.5 h
"N.N.[Cl][Pt][Cl] [Compound 19, Cisplatin, reference compound]",–,–,–,–,–,–,–,–,–,–,–,–,–,–,–,–,–,–,–,"IC50 LS180 ([2]; 48 h): 1.49 ± 0.13 µg/mL; IC50 COS7 [24]: 3.86 ± 0.62 µg/mL; IC50 LoVo/DX [7]: 2.03 ± 0.17 µg/mL; IC50 HT-29 [9, 25]: 16.73 ± 0.58 µg/mL; IC50 LoVo [11]: 2.09 ± 0.12 µg/mL"
